The text below walks through data of ChEMBL document CHEMBL1949549, “Concise synthesis of (+)-conduritol F and inositol analogues from naturally available (+)-proto-quercitol and their glucosidase inhibitory activity” (Bioorg Med Chem Lett, 2012).

Test [1] can be described thus: Inhibition of Baker's yeast Alpha-glucosidase-1 using p-nitrophenyl-alpha-D-glucopyranoside as substrate preincubated for 10 mins prior substrate addition measured after 20 mins by spectrophotometry. Further details: species or system Saccharomyces cerevisiae.
Test [2] deals with Sucrase-isomaltase, intestinal (Rattus norvegicus) (UniProt P23739). Nature of the test: Inhibition of rat intestinal alpha-glucosidase sucrase using sucrose as substrate at 10 mg/mL preincubated for 10 mins prior substrate addition measured after 40 mins by spectrophotometry.
Test [3] has as its target Lysosomal alpha-glucosidase (Rattus norvegicus) (UniProt Q6P7A9). Nature of the test: Inhibition of rat intestinal alpha-glucosidase maltase using maltose as substrate at 10 mg/mL preincubated for 10 mins prior substrate addition measured after 40 mins by spectrophotometry.
For test [4], the system named is Saccharomyces cerevisiae. Nature of the test: Inhibition of Baker's yeast Alpha-glucosidase-1 using p-nitrophenyl-alpha-D-glucopyranoside as substrate at 10 mg/mL preincubated for 10 mins prior substrate addition measured after 20 mins by spectrophotometry.
Test [5] deals with Saccharomyces cerevisiae. Nature of the test: Ratio of acarbose IC50 to compound IC50 for Baker's yeast Alpha-glucosidase-1.
The target of a further test is T1, Beta-galactosidase (Homo sapiens, UniProt P16278).
T1 sequence (P16278 whole entry): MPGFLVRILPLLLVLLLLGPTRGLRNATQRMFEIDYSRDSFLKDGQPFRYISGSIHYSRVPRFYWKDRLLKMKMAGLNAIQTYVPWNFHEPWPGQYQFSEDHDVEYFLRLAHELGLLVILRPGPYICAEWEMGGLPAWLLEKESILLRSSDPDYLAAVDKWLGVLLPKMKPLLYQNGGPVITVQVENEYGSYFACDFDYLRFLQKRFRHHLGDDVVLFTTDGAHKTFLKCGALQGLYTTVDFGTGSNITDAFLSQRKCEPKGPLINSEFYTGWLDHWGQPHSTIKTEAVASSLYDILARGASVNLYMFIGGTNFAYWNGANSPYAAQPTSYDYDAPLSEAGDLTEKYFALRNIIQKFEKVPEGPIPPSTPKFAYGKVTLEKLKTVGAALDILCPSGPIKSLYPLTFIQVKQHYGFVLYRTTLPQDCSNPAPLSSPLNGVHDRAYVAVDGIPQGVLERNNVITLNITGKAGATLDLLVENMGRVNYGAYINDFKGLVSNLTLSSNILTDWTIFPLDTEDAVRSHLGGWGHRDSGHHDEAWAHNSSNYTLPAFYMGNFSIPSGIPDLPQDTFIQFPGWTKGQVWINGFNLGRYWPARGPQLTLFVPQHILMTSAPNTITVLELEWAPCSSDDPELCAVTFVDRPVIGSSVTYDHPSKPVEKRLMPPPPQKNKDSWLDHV
Nature of the test: Inhibition of beta-galactosidase.

Each structure is given as a SMILES string.

Chain of Sucrase-isomaltase, intestinal (Rattus norvegicus) (P23739 1-1013 limits assumed): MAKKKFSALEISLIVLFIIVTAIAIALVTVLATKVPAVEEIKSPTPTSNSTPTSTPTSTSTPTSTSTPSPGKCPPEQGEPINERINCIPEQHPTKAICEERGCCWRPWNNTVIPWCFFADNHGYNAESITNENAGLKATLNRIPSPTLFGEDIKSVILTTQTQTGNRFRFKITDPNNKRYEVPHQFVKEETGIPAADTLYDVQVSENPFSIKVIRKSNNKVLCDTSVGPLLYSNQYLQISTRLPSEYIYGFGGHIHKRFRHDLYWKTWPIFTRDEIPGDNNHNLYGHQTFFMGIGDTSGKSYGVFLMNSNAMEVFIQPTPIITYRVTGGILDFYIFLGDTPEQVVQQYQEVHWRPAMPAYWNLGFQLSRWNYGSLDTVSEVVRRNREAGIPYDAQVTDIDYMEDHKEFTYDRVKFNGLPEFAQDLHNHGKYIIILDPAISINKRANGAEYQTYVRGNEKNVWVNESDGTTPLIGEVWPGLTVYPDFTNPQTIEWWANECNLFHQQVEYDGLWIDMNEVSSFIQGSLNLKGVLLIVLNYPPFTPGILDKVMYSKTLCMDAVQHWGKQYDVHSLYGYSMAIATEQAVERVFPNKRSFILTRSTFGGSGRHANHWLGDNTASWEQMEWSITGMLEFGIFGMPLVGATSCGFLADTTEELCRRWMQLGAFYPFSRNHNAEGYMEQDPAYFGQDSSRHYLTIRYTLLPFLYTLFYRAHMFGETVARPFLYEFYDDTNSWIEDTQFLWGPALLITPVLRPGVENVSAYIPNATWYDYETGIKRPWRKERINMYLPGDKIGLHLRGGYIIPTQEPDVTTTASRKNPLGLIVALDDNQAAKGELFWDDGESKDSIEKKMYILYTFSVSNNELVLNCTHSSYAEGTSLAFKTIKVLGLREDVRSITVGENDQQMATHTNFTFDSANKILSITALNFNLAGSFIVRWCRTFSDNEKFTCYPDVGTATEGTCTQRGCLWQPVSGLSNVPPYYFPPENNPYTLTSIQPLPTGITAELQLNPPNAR
Chain of Sucrase-isomaltase, intestinal (Rattus norvegicus) (P23739 1014-1841 limits assumed): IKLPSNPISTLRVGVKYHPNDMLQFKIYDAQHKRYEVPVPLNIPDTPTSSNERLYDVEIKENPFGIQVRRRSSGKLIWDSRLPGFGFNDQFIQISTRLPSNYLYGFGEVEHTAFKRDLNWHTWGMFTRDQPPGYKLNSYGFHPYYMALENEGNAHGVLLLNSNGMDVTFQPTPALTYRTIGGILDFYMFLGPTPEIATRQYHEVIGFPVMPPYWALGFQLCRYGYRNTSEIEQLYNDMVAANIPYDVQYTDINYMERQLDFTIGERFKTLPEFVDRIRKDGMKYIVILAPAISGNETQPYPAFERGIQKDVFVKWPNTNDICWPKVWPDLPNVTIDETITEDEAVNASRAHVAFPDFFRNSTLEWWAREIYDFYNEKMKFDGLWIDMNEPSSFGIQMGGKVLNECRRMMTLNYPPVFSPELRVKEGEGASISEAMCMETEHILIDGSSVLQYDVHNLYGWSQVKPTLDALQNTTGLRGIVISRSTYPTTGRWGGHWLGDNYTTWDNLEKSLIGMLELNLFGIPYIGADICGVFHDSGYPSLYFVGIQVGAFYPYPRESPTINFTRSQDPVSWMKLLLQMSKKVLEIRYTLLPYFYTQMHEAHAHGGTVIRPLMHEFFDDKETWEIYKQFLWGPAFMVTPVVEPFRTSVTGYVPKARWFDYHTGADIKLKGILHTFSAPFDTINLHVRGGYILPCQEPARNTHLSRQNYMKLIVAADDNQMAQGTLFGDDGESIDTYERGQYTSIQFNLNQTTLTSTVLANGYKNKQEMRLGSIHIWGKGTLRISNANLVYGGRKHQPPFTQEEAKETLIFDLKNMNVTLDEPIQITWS
Chain of Lysosomal alpha-glucosidase (Rattus norvegicus) (Q6P7A9 whole entry): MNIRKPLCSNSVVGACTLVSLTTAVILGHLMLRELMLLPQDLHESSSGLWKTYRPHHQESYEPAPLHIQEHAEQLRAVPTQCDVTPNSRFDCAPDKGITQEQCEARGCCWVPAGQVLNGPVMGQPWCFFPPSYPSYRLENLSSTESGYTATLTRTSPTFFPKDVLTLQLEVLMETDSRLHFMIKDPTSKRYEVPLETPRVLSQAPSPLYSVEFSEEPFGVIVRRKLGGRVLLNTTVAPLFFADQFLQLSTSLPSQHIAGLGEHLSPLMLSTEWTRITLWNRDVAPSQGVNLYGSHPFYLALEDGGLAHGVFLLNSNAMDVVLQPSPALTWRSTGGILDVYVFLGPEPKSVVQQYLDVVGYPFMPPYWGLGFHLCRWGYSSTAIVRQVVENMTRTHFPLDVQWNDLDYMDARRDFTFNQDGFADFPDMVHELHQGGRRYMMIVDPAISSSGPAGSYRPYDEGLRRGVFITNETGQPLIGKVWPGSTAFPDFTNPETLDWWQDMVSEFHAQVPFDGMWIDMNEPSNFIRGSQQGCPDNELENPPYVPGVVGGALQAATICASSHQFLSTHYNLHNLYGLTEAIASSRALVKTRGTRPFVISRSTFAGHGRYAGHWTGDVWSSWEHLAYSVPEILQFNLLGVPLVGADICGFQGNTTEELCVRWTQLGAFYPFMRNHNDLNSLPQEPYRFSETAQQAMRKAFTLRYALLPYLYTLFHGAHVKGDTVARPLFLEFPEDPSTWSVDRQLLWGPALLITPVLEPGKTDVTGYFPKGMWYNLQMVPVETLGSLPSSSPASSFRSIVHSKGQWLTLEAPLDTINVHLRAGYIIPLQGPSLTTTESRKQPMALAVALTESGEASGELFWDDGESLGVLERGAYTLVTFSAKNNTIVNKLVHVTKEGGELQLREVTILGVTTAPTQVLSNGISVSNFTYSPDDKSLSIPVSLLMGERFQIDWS

Broadly, the IC50 is the concentration at which inhibition is half-maximal. Read a low IC50 as greater potency in that assay. In general, inhibition refers to the percentage by which the read-out fell short of the control. With `O[C@H]1[C@H](O)[C@H](O)[C@@H](O)[C@H](O)[C@H]1O`, half-maximal inhibition in test [1] (IC50) required 1260 µM. In addition, the inhibition in test [2] and in test [3] was below 30% each time.

As to `O[C@H]1[C@@H](O)[C@@H](O)[C@@H](O)[C@@H](O)[C@@H]1O`, the IC50 in test [1] worked out at 476 µM. The inhibition in test [2] and in test [3] was below 30% throughout.

On to `OC1[C@@H](O)[C@H](O)C[C@@H](O)[C@@H]1O` (stereo not given in full), for which the inhibition (in test [2]; in test [3]; with Saccharomyces cerevisiae [4]) was below 30% throughout.

As to `O[C@@H]1[C@@H](O)[C@@H](O)C=C[C@H]1O` [listing 1 of 2 here], the inhibition in test [2] and in test [3] was below 30% throughout. For the same molecule, the Ratio IC50 with Saccharomyces cerevisiae [5] turned out to be 5.

Take `O[C@@H]1[C@@H](O)[C@@H](O)C=C[C@H]1O` (relative stereo): 600 µM corresponded to half-maximal inhibition against Beta-galactosidase (IC50).

In test [1], `C[C@H]1O[C@H](O[C@H]2[C@H](O)[C@@H](O)[C@@H](O[C@H]3[C@H](O)[C@@H](O)C(O)O[C@@H]3CO)O[C@@H]2CO)[C@H](O)[C@@H](O)[C@@H]1N[C@H]1C=C(CO)[C@@H](O)[C@H](O)[C@H]1O` (stereo not given in full) [ACARBOSE] returned a concentration for half-maximal inhibition (IC50) of 404 µM.

The molecule `O[C@@H]1[C@@H](O)[C@@H](O)C=C[C@H]1O` [listing 2 of 2 here] showed a 50% inhibitory concentration (IC50) in test [1] of 86.1 µM. This IC50 lies about 4.7-fold lower than the previous one.
